From patent US4039666A, “Anticonvulsant phenylsilanes” (Dow Corning Corporation, priority 1976, dated 1977) come the findings set out here.

A word on the ED50: it is the dose at which the effect has come halfway, by size or by number of responders.

Structures are written as SMILES. Where two headings read alike, the source gives them in different places.

The subject of data set [1] is mice. As to the kind of experiment: Potentiation of hexobarbital sleep time (relative sedative activity). It counts as in vivo, mice (male, Carworth CF1 strain). The conditions noted are these: Table I; 316 mg/kg test compound oral, 90 minutes before hexobarbital 100 mg/kg i.p. Here is the method:
As a test of relative sedative activity of the various silanes, the ability of each to potentiate the action of hexobarbital was studied. For each silane, two groups of male mice (Carworth CF1 strain) were utilized as test animals. Two groups of mice (six/group) were used, one group was orally dosed with 316 mg./kg. of the test silane in sesame oil carrier 90 minutes before administration of hexobarbital. Hexobarbital was administered by intraperitoneal injection of 100 mg./kg. in saline carrier. The time from loss of the righting reflex to recovery of the righting reflex was recorded as sleep time. Potentiation of hexobarbital of the test silane is the ratio of the mean sleep time by the group of test animals dosed with the silane divided by the mean sleep time of the control group not dosed with silane.
^4 Potentiation of hexobarbital - values are the ratios of sleep time
of animals dosed with 316 mg/kg test compound plus 100 mg/kg hexobarbital
to the sleep times of animals dosed with hexobarbital alone.

Data set [2] concerns mice. As to the kind of experiment: Electroshock test (Maximal Electroshock Test, M.E.S.), inhibition of tonic extension of hind limbs. The data set is classed as in vivo, mice (adult male, Carworth CF 1 strain). The settings on record: Mus musculus, oral. On the procedure:
The electroshock test procedure was used to determine anticonvulsant activities of diphenylmethylsilanol. Adult male mice (Carworth CF 1 strain) were utilized as test animals. […] Seizure protection was scored as inhibition of tonic extension. Groups of mice (six/group) were dosed orally with varying amounts of diphenylmethylsilanol in a sesame oil suspension. The dosages ranged from 10 to 1000 mg./kg. and the train of electric shocks was applied 2, 4 and 6 hours after dosing. The effective dose to prevent convulsions in half the animals (ED50) was determined at 2, 4 and 6 hours to be 52, 63, 100 mg/kg, respectively, and the 95 percent CI (confidence interval) was 23 to 114 mg./kg.; 27 to 141 mg./kg.; 47 to 212 mg./kg.
The electric shock test procedure was also used to determine anticonvulsant activities of phenylmethyldimethoxysilane. Adult male mice (Carworth CF 1 strain) were utilized as test animals. […] Seizure protection was scored as in Example 1. Groups of mice ten/group) were dosed orally with varying amounts of phenylmethyldimethoxysilane in a sesame oil solution. The dosages ranged from 25 to 200 mg./kg. and the train of electric shocks was applied 1/2, 1, 11/2, 2 and 3 hours after dosing. The effective dose to prevent convulsions in half the animals (ED50) was determined at 1/2, 1, 11/2, 2 and 3 hours to be 52, 86, 64, 82 and 90 mg./kg., respectively. Utilizing the same electroshock test procedure as set forth in the first paragraph of this example, groups of mice (ten/group) were dosed intraperitoneally with varying amounts of phenylmethyldimethoxysilane in a sesame oil solution. The dosages ranged from 25 to 200 mg./kg. and the train of electric shocks was applied 1/2, 1, 11/2, 2 and 3 hours after dosing. The effective dose to prevent convulsions in half the animals (ED50) was determined at 1/2, 1, 11/2, 2 and 3 hours to be 45, 65, 52, 51 and 70 mg./kg., respectively.
The electric shock test used in Example 1 and 2 was used in determining the anticonvulsant activities of several other silanes.
(§1) ^1 The test silane was administered orally in sesame oil vehicle at
^2 M.E.S. - Maximal Electroshock Test - ED50 is dose calculated
to protect 50% of mice from tonic extensor convulsion. The dosages ranged
Background: In the maximal electroshock model the usual endpoint is tonic extension of the hind limbs.

Data set [3] deals with mice. As to the kind of experiment: Protection vs. pentylenetetrazol clonic convulsions. The data set is classed as in vivo. The conditions noted are these: Table I, 316 mg/kg test compound, oral in sesame oil, pentylenetetrazol 80 mg/kg s.c., n.p. = no protection observed; for responders at 316 mg/kg: Mus musculus, read-out: Protection vs. Pentylenetetrazol (numbers of mice protected from clonic convulsion/number tested) (converted). On the procedure:
as §1
^3 Pentylenetetrazol 80 mg/kg s.c. produces clonic convulsions in 90%
of control mice. Values in table are the numbers of mice protected from
clonic convulsion/number tested when dosed with 316 mg/kg test compound.

Setting [4] is: Table I, sesame oil, 2 hours after dosing, n.p. = no protection observed, read-out: MES ED50.
Setting [5] is: Table I, sesame oil, 4 hours after dosing, read-out: MES ED50.
Where [6] appears, read: Table I, sesame oil, 6 hours after dosing, read-out: MES ED50.

Turning to `C[Si](O)(c1ccccc1)c1ccccc1` [diphenylmethylsilanol], the “Potentiation of Hexobarbital (ratio of sleep time with test compound to hexobarbital alone)” value in the data set on mice [1] turned out to be 1.5. Moreover, the median effective dose (ED50) in the data set on mice [2] (Example 1, sesame oil suspension, 2 hours after dosing, 95 percent CI 23 to 114 mg./kg., six mice/group, read-out: effective dose to prevent convulsions in half the animals (ED50)) was found to be 52 mg/kg; with mice [2] (Example 1, sesame oil suspension, 4 hours after dosing, 95 percent CI 27 to 141 mg./kg., six mice/group, read-out: effective dose to prevent convulsions in half the animals (ED50)), 63 mg/kg; in the data set on mice [2] (Example 1, sesame oil suspension, 6 hours after dosing, 95 percent CI 47 to 212 mg./kg., six mice/group, read-out: effective dose to prevent convulsions in half the animals (ED50)), 100 mg/kg; in the data set with mice [2] (setting [4]), 52 mg/kg; in the data set with mice [2] (setting [5]) it was 63 mg/kg; in the data set on mice [2] (setting [6]), 100 mg/kg. Further, the responders at 316 mg/kg in the data set on mice [3] is 50%.

Regarding `CCO[Si](C)(C)c1ccccc1` [drawing 8; R1=CH3; R2=CH3; X=OC2 H5], the “Potentiation of Hexobarbital (ratio of sleep time with test compound to hexobarbital alone)” value in the data set with mice [1] is given as > 1.3. Also, the ED50 was found to be 200 mg/kg in the data set with mice [2] (setting [4]), 213 mg/kg in the data set on mice [2] (setting [5]) and 350 mg/kg in the data set on mice [2] (setting [6]). Further, the responders at 316 mg/kg in the data set with mice [3] is 33.3%.

For `C[Si](C)(O)c1ccccc1` [drawing 8; R1=CH3; R2=CH3; X=OH], in the data set with mice [1], the “Potentiation of Hexobarbital (ratio of sleep time with test compound to hexobarbital alone)” value was determined as 2.7. In addition, the values for the ED50 with mice [2] (setting [4]), in the data set on mice [2] (setting [5]) and in the data set on mice [2] (setting [6]) were 118 mg/kg, 135 mg/kg and 110 mg/kg, respectively. Besides, the responders at 316 mg/kg in the data set on mice [3] was 33.3%.

As for `O[Si](c1ccccc1)(c1ccccc1)c1ccccc1` [drawing 9; X=OH], the “Potentiation of Hexobarbital (ratio of sleep time with test compound to hexobarbital alone)” value in the data set with mice [1] is 1.9. In addition, the ED50 in the data set with mice [2] (setting [4]) was determined as 105 mg/kg; with mice [2] (setting [5]) it was 60 mg/kg; in the data set on mice [2] (setting [6]), 110 mg/kg. For the same compound, in the data set on mice [3], the “Protection vs. Pentylenetetrazol (numbers of mice protected from clonic convulsion/number tested)” value is listed as “n.p”.

On to `CCO[Si](CC)(OCC)c1ccccc1` [drawing 10; R1=C2 H5; X=OC2 H5], for which the “Potentiation of Hexobarbital (ratio of sleep time with test compound to hexobarbital alone)” value in the data set with mice [1] stood at 1.8. Further, the figures for the ED50 in the data set with mice [2] (setting [4]), in the data set with mice [2] (setting [5]) and in the data set on mice [2] (setting [6]) were 150 mg/kg, 180 mg/kg and 64 mg/kg, respectively. Also, the responders at 316 mg/kg in the data set with mice [3] was 66.7%.

As for `CC[Si](O)(O)c1ccccc1` [drawing 10; R1=C2 H5; X=OH], the “Potentiation of Hexobarbital (ratio of sleep time with test compound to hexobarbital alone)” value in the data set on mice [1] was found to be 1.7. The results for the ED50 in the data set with mice [2] (setting [4]) and in the data set on mice [2] (setting [5]) were 120 mg/kg and 160 mg/kg, respectively. Besides, the responders at 316 mg/kg with mice [3] is 100%.

Turning to `CCO[Si](C)(OCC)c1ccccc1` [drawing 10; R1=CH3; X=OC2 H5], the “Potentiation of Hexobarbital (ratio of sleep time with test compound to hexobarbital alone)” value in the data set with mice [1] was 1.1. The figures for the ED50 in the data set with mice [2] (setting [4]), in the data set with mice [2] (setting [5]) and with mice [2] (setting [6]) were 180 mg/kg, 31 mg/kg and 220 mg/kg, respectively. Besides, the “Protection vs. Pentylenetetrazol (numbers of mice protected from clonic convulsion/number tested)” value with mice [3] is recorded as “n.p”.

`CC(C)O[Si](C)(OC(C)C)c1ccccc1` [drawing 10; R1=CH3; X=OCH(CH3)2]: in the data set with mice [1], the “Potentiation of Hexobarbital (ratio of sleep time with test compound to hexobarbital alone)” value amounted to 1.8. Besides, the results for the 50% effective dose (ED50) with mice [2] (setting [4]), with mice [2] (setting [5]) and in the data set on mice [2] (setting [6]) were 94 mg/kg, 84 mg/kg and 41 mg/kg, respectively. Also, the responders at 316 mg/kg with mice [3] is 33.3%.

Turning to `C[Si](O)(O)c1ccccc1` [drawing 10; R1=CH3; X=OH, phenylmethylsilanediol], the “Potentiation of Hexobarbital (ratio of sleep time with test compound to hexobarbital alone)” value in the data set with mice [1] is 1.8. The 50% effective dose (ED50) worked out at 80 mg/kg with mice [2] (setting [4]), 110 mg/kg in the data set with mice [2] (setting [5]) and 80 mg/kg with mice [2] (setting [6]). In addition, the responders at 316 mg/kg in the data set on mice [3] was 33.3%.

In the case of `CC(=O)O[Si](C)(OC(C)=O)c1ccccc1` [drawing 10; R1=CH3; X=drawing 11], the “Potentiation of Hexobarbital (ratio of sleep time with test compound to hexobarbital alone)” value with mice [1] is 1.8. The ED50 with mice [2] (setting [4]) worked out at 200 mg/kg; in the data set with mice [2] (setting [5]), 125 mg/kg; in the data set on mice [2] (setting [6]), 142 mg/kg. In addition, in the data set with mice [3], the “Protection vs. Pentylenetetrazol (numbers of mice protected from clonic convulsion/number tested)” value is “n.p”.

With `C=C[Si](OCC)(OCC)c1ccccc1` [drawing 10; R1=CHCH2; X=OC2 H5], the “Potentiation of Hexobarbital (ratio of sleep time with test compound to hexobarbital alone)” value in the data set with mice [1] turned out to be 0.9. Also, the ED50 with mice [2] (setting [4]) was determined as 170 mg/kg; in the data set on mice [2] (setting [5]), 200 mg/kg; with mice [2] (setting [6]), 200 mg/kg. Also, the responders at 316 mg/kg in the data set with mice [3] was 16.7%.

`CO[Si](OC)(OC)c1ccccc1` [drawing 12; X=OCH3]: the “Potentiation of Hexobarbital (ratio of sleep time with test compound to hexobarbital alone)” value in the data set on mice [1] came to 1.3. The median effective dose (ED50) was found to be 560 mg/kg in the data set with mice [2] (setting [4]), 300 mg/kg with mice [2] (setting [5]) and 160 mg/kg in the data set with mice [2] (setting [6]). The “Protection vs. Pentylenetetrazol (numbers of mice protected from clonic convulsion/number tested)” value with mice [3] is “n.p”.
